The source made the active and inactive calls. No cut-off for these calls is given here.
Test system: not listed separately
Assay: Cell cycle arrest in mouse tsFT210 cells assessed as accumulation of cells at G2/M phase
Type: functional, cell-based
Conditions: not given

| Compound | IC50 [µM] |
| --- | --- |
| COc1ccc2c(c1)NC(=O)[C@@]21C[C@H]2C(=O)N3CCC[C@H]3C(=O)N2[C@H]1C=C(C)C [SPIROTRYPROSTATIN A] | 198 |

Test system: MCF7
Assay: Cell cycle arrest in human MCF7 cells
Type: functional, cell-based
Conditions: not given

| Compound | Activity |
| --- | --- |
| O=C1[C@@H]2CS[C@@]3(C(=O)Nc4ccc(Br)cc43)N2C(=O)[C@@H]2CCCN12 | inactive |
| CN1C(=O)[C@]2(SC[C@H]3C(=O)N4CCC[C@H]4C(=O)N32)c2ccccc21 | inactive |
| O=C1[C@@H]2CS[C@@]3(C(=O)Nc4ccccc43)N2C(=O)[C@@H]2CCCN12 | inactive |
| CN1C(=O)[C@@]2(SC[C@H]3C(=O)N4CCC[C@H]4C(=O)N32)c2ccccc21 | inactive |
| Cc1ccc2c(c1)[C@@]1(SC[C@H]3C(=O)N4CCC[C@H]4C(=O)N31)C(=O)N2 | inactive |
| Cc1ccc2c(c1)[C@]1(SC[C@H]3C(=O)N4CCC[C@H]4C(=O)N31)C(=O)N2 | inactive |
| O=C1[C@@H]2CS[C@]3(C(=O)Nc4ccccc43)N2C(=O)[C@@H]2CCCN12 | inactive |
| O=C1[C@@H]2CS[C@]3(C(=O)Nc4ccc(Br)cc43)N2C(=O)[C@@H]2CCCN12 | inactive |

Test system: MCF7
Assay: Cytotoxicity against human MCF7 cells at 100 uM after 48 hrs by MTT assay
Type: functional, cell-based
Conditions: not given

| Compound | Activity |
| --- | --- |
| O=C1[C@@H]2CS[C@@]3(C(=O)Nc4ccc(Br)cc43)N2C(=O)[C@@H]2CCCN12 | inactive |
| CN1C(=O)[C@]2(SC[C@H]3C(=O)N4CCC[C@H]4C(=O)N32)c2ccccc21 | inactive |
| O=C1[C@@H]2CS[C@@]3(C(=O)Nc4ccccc43)N2C(=O)[C@@H]2CCCN12 | inactive |
| CN1C(=O)[C@@]2(SC[C@H]3C(=O)N4CCC[C@H]4C(=O)N32)c2ccccc21 | inactive |
| Cc1ccc2c(c1)[C@@]1(SC[C@H]3C(=O)N4CCC[C@H]4C(=O)N31)C(=O)N2 | inactive |
| Cc1ccc2c(c1)[C@]1(SC[C@H]3C(=O)N4CCC[C@H]4C(=O)N31)C(=O)N2 | inactive |
| O=C1[C@@H]2CS[C@]3(C(=O)Nc4ccccc43)N2C(=O)[C@@H]2CCCN12 | inactive |
| O=C1[C@@H]2CS[C@]3(C(=O)Nc4ccc(Br)cc43)N2C(=O)[C@@H]2CCCN12 | inactive |

Test system: T47D
Assay: Cytotoxicity against human T47D cells at 100 uM after 48 hrs by MTT assay
Type: functional, cell-based
Conditions: not given

| Compound | Activity |
| --- | --- |
| O=C1[C@@H]2CS[C@@]3(C(=O)Nc4ccc(Br)cc43)N2C(=O)[C@@H]2CCCN12 | inactive |
| CN1C(=O)[C@]2(SC[C@H]3C(=O)N4CCC[C@H]4C(=O)N32)c2ccccc21 | inactive |
| O=C1[C@@H]2CS[C@@]3(C(=O)Nc4ccccc43)N2C(=O)[C@@H]2CCCN12 | inactive |
| CN1C(=O)[C@@]2(SC[C@H]3C(=O)N4CCC[C@H]4C(=O)N32)c2ccccc21 | inactive |
| Cc1ccc2c(c1)[C@@]1(SC[C@H]3C(=O)N4CCC[C@H]4C(=O)N31)C(=O)N2 | inactive |
| Cc1ccc2c(c1)[C@]1(SC[C@H]3C(=O)N4CCC[C@H]4C(=O)N31)C(=O)N2 | inactive |
| O=C1[C@@H]2CS[C@]3(C(=O)Nc4ccccc43)N2C(=O)[C@@H]2CCCN12 | inactive |
| O=C1[C@@H]2CS[C@]3(C(=O)Nc4ccc(Br)cc43)N2C(=O)[C@@H]2CCCN12 | inactive |

Test system: A-431
Assay: Cytotoxicity against human A431 cells at 100 uM after 48 hrs by MTT assay
Type: functional, cell-based
Conditions: not given

| Compound | Activity |
| --- | --- |
| O=C1[C@@H]2CS[C@@]3(C(=O)Nc4ccc(Br)cc43)N2C(=O)[C@@H]2CCCN12 | inactive |
| CN1C(=O)[C@]2(SC[C@H]3C(=O)N4CCC[C@H]4C(=O)N32)c2ccccc21 | inactive |
| O=C1[C@@H]2CS[C@@]3(C(=O)Nc4ccccc43)N2C(=O)[C@@H]2CCCN12 | inactive |
| CN1C(=O)[C@@]2(SC[C@H]3C(=O)N4CCC[C@H]4C(=O)N32)c2ccccc21 | inactive |
| Cc1ccc2c(c1)[C@@]1(SC[C@H]3C(=O)N4CCC[C@H]4C(=O)N31)C(=O)N2 | inactive |
| Cc1ccc2c(c1)[C@]1(SC[C@H]3C(=O)N4CCC[C@H]4C(=O)N31)C(=O)N2 | inactive |
| O=C1[C@@H]2CS[C@]3(C(=O)Nc4ccccc43)N2C(=O)[C@@H]2CCCN12 | inactive |
| O=C1[C@@H]2CS[C@]3(C(=O)Nc4ccc(Br)cc43)N2C(=O)[C@@H]2CCCN12 | inactive |

Test system: MCF7
Assay: Cytotoxicity against human MCF7 cells after 48 hrs by MTT assay
Type: functional, cell-based
Conditions: MCF7, 48 h

| Compound | IC50 [µM] |
| --- | --- |
| CCOC(=O)[C@@]1(c2cc(Br)ccc2N)SC[C@H]2C(=O)N3CCC[C@H]3C(=O)N21 | 2.2 |
| CCOC(=O)[C@@]1(c2ccccc2N)SC[C@H]2C(=O)N3CCC[C@H]3C(=O)N21 | 14.8 |
| CCOC(=O)[C@@]1(c2cc(C)ccc2N)SC[C@H]2C(=O)N3CCC[C@H]3C(=O)N21 | 1.6 |

From ChEMBL document CHEMBL1165964, “Design and synthesis of spirotryprostatin-inspired diketopiperazine systems from prolyl spirooxoindolethiazolidine derivatives” (Bioorg Med Chem, 2010)
